Laboratory results published in patent US20240207249A1, “COMPOSITIONS AND METHODS FOR TREATING, PREVENTING OR REVERSING AGE-ASSOCIATED INFLAMMATION AND DISORDER” (Brown University, priority 2019, published 2024).
“Also recorded” adds a separate entry of the source. Read-outs that look alike come from different tables or passages of the source.

What was measured:
L1 retrotransposition = L1 retrotransposition dual-luciferase reporter cellular assay in HeLa-M2 cells; assay type: cell-based, human; conditions: for Cellular assay: retrotransposition efficiency (mean ± SD): Table 2
L1 EN = L1 EN (Homo sapiens (Human), UniProt O00370); assay: fluorescent oligonucleotide nicking assay; assay type: biochemical
L1 EN, sequence (O00370 1-239): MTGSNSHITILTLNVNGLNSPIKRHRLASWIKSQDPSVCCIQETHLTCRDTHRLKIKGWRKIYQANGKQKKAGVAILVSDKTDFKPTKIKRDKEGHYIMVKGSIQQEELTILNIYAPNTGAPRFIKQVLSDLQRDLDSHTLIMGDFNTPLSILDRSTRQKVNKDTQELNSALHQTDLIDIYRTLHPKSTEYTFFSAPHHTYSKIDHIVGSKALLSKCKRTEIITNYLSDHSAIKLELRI

[1] = molecular target: human L1 EN domain (1-239) (Homo sapiens (Human), UniProt O00370); assay: plasmid nicking L1 EN activity biochemical assay
human L1 EN domain (1-239), sequence (O00370 1-239): as above

[2] = system: full-length L1 (ORF1 and ORF2) in HeLa Tet-On cells; assay: L1-induced DNA damage, γ-H2AX immunofluorescence, full-length L1 expression; assay type: cell-based, human
[3] = system: senescent human diploid fibroblasts (LF1); assay: RT-qPCR of inflammatory markers in replicative senescent cells; assay type: cell-based
APE-1 = APE-1 (Homo sapiens (Human), UniProt P27695); conditions: cited from earlier work
APE-1, sequence (P27695 whole entry, the tested form may be a part): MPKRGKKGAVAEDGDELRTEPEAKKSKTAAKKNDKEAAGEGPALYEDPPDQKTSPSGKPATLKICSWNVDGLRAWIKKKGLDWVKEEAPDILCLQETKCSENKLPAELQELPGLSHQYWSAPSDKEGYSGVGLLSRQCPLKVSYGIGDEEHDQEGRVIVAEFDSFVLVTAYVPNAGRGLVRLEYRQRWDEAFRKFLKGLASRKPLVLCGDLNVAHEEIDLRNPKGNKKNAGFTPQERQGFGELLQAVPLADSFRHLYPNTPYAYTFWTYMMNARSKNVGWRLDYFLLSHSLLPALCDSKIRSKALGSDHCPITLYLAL

[4] = system: L1 EN domain in HeLa Tet-On cells; assay: L1-induced DNA damage, γ-H2AX immunofluorescence and neutral comet assay, EN domain-only expression; assay type: cell-based, human
HeLa cells = conditions: human
[5] = solubility remark in cellular assay column; conditions: reason for no cellular data
[6] = system: senescent human diploid fibroblasts (LF1); assay: RNA-seq transcriptomic analysis of senescent cells; assay type: cell-based; conditions: IFN gene set and aging gene set
[7] = in vitro assays with purified EN

| SMILES | Biochemical assay: concentration at maximum inhibition ([1]; plasmid nicking assay) | Biochemical assay: maximum inhibition ([1]; plasmid nicking assay) | L1 EN inhibition in the biochemical assay (in words) [1] | effect on retrotransposition in the cellular reporter assay (in words) (L1 retrotransposition) | Biochemical assay: concentration at maximum inhibition [1] | Biochemical assay: maximum inhibition [1] | other results |
| --- | --- | --- | --- | --- | --- | --- | --- |
| COc1ccc([N+](=O)[O-])cc1NC(=O)c1ccc2c(c1)N(Cc1cc(C)ccc1C)C(=O)c1ccccc1S2(=O)=O [AD34] | – | – | – | did not significantly impact retrotransposition in cells | – | – | in vitro activity against EN (in words) (L1 EN; [7]): clear activity in vitro |
| C[C@@H](Nc1ccc([N+](=O)[O-])cc1[N+](=O)[O-])C(=O)O [AD8] | – | – | – | – | 15 mM FIG. 2G | 100% inhibition at | – |
| C[C@H]1C[C@H](C)CN(CCCNc2ccc(C(=O)Nc3ccc(C(F)(F)F)cc3)cc2[N+](=O)[O-])C1 [AD9] | 750 μM FIG. 2H | 80% inhibition at | – | high activity in the retrotransposition assay | – | – | in vitro activity against EN (in words) (L1 EN; [7]): relatively low efficacy in vitro |
| C/C(C[C@H](c1ccccc1)c1c(O)c2ccccc2oc1=O)=N\Nc1ccc([N+](=O)[O-])cc1[N+](=O)[O-] [AD3] | – | – | – | best inhibition in the retrotransposition assay | 250 μM FIG. 2C | 100% inhibition at | inhibition of L1-induced DNA damage (in words) [2]: best inhibition; effect on inflammatory markers in senescent cells (in words) [3]: show efficacy |
| COc1ccc(OC)c(NS(=O)(=O)c2ccc(NS(=O)(=O)c3cccc([N+](=O)[O-])c3)cc2)c1 [AD36] | – | – | – | high activity in the retrotransposition assay | – | – | in vitro activity against EN (in words) (L1 EN; [7]): relatively low efficacy in vitro |
| O=C(CCCCCCCCCCC(=O)Nc1cccc([N+](=O)[O-])c1)Nc1cccc([N+](=O)[O-])c1 [AD11] | – | – | – | – | 10.0 μM FIG. 2J | 100% inhibition at | inhibition of L1-induced DNA damage (in words) [4]: better efficacy |
| Cc1ccc(NC(=O)CSc2nc(-c3ccccc3F)nc3c2Cc2c(CO)cnc(C)c2O3)cc1 [AD28] | – | – | – | – | – | – | Toxicity at concentration (HeLa cells): Toxicity at 2.5 μM |
| CCC1=C(C)CN(C(=O)NCCc2ccc(S(=O)(=O)NC(=O)N[C@H]3CC[C@H](C)CC3)cc2)C1=O [AD15, Glimepiride, reference compound] | 2.5 mM FIG. 2N | 100% inhibition at | inhibited L1 EN activity in the biochemical assay | reduced retrotransposition in the cellular reporter assay | – | – | Cellular assay: retrotransposition efficiency (mean ± SD) (L1 retrotransposition; 50 μM): 50 μM: 17.1 |
| O=C1c2ccc(Oc3ccc4c(c3)C(=O)N(Nc3ccc([N+](=O)[O-])cc3[N+](=O)[O-])C4=O)cc2C(=O)N1Nc1ccc([N+](=O)[O-])cc1[N+](=O)[O-] [AD13] | – | – | effective in the biochemical assay | – | 500 μM FIG. 2L | 100% inhibition at | – |
| O=[N+]([O-])c1ccc(Nc2ccc(Nc3ccccc3)c(S(=O)(=O)O)c2)c([N+](=O)[O-])c1 [AD4] | – | – | – | – | 1 mM FIG. 2D | 100% inhibition at | – |
| O=C(O)[C@H](CCCCNc1ccc([N+](=O)[O-])cc1[N+](=O)[O-])Nc1ccc([N+](=O)[O-])cc1[N+](=O)[O-] [AD2] | – | – | effective against the L1 EN | did not significantly impact retrotransposition in cells | 1 mM FIG. 2B | 100% inhibition at | in vitro activity against EN (in words) (L1 EN): clear activity in vitro; Ki (APE-1): 13 µM |
| O=C(NCCCCCCNC(=O)Nc1cccc([N+](=O)[O-])c1)Nc1cccc([N+](=O)[O-])c1 [AD32] | – | – | – | high activity in the retrotransposition assay | – | – | in vitro activity against EN (in words) (L1 EN): relatively low efficacy in vitro |
| Cc1cc(=O)oc2c3c(ccc12)O/C(=N/Nc1ccc([N+](=O)[O-])cc1[N+](=O)[O-])C3=O [AD5] | – | – | – | did not significantly impact retrotransposition in cells | 50 μM FIG. 2E | 100% inhibition | in vitro activity against EN (in words) (L1 EN): clear activity in vitro; solubility (in words) [5]: (poor solubility) |
| O=C(Cn1nc(-c2ccc(Br)cc2)ccc1=O)NC[C@H]1CC[C@H](C(=O)O)CC1 [AD43] | – | – | – | high activity in the retrotransposition assay | – | – | in vitro activity against EN (in words) (L1 EN; [7]): relatively low efficacy in vitro |
| C/C(=N/Nc1ccc([N+](=O)[O-])cc1[N+](=O)[O-])c1ccc(-n2nncc2C(C)(C)C)cc1 [AD7] | – | – | – | high activity in the retrotransposition assay | 500 μM FIG. 2F | 80% inhibition at | in vitro activity against EN (in words) (L1 EN): relatively low efficacy in vitro |
| COc1ccc2c(c1)C(=O)N(CCc1ccc(S(=O)(=O)NC(=O)NC3CCCCC3)cc1)C(=O)C2(C)C [AD12, Gliquidone, reference compound] | – | – | – | reduced retrotransposition in the cellular reporter assay; also recorded: high activity in the retrotransposition assay; also recorded: best inhibition in the retrotransposition assay | – | – | inhibition of L1-induced DNA damage (in words) [2]: best inhibition; effect on inflammatory markers in senescent cells (in words) ([3]; 1 month treatment): show efficacy; gene set expression by RNA-seq (in words) [6]: decreased expression |

The next lines start with results.

| Biochemical assay: concentration at maximum inhibition ([1]; plasmid nicking assay) | Biochemical assay: maximum inhibition ([1]; plasmid nicking assay) | L1 EN inhibition in the biochemical assay (in words) [1] | SMILES | effect on retrotransposition in the cellular reporter assay (in words) (L1 retrotransposition) | Biochemical assay: concentration at maximum inhibition [1] | Biochemical assay: maximum inhibition [1] | other results |
| --- | --- | --- | --- | --- | --- | --- | --- |
| – | No inhibition | did not inhibit the L1 EN | CCn1c2ccccc2c2cc(/C=N\Nc3cc(C)nc4cc5c(cc34)OCO5)ccc21 [AD1, reference compound] | – | – | – | Ki (APE-1): 0.12 µM |
| 250 μM FIG. 2R | 75% inhibition at | effective in the biochemical assay | COc1ccccc1NC(=O)Nc1nc(Nc2ccc(S(=O)(=O)Nc3nc(C)cc(C)n3)cc2)nc(Oc2cccc(O)c2)n1 [AD19] | – | – | – | – |
| 750 μM FIG. 2F | 90% inhibition at | – | Cc1cc([N+](=O)[O-])ccc1NC(=S)NC(=O)C(c1ccccc1)c1ccccc1 [AD6] | – | – | – | Cellular assay: retrotransposition efficiency (mean ± SD) (L1 retrotransposition; 10 μM): 10 μM: 79.1 |
| 100 μM FIG. 21 | 100% inhibition at | – | O=C(NC(NC(=O)c1ccccc1)c1cccc([N+](=O)[O-])c1)c1ccccc1 [AD10] | – | – | – | Cellular assay: retrotransposition efficiency (mean ± SD) (L1 retrotransposition; 50 μM): 50 μM: 68.9 |
| 500 μM FIG. 20 | 50% inhibition at | effective in the biochemical assay | Nn1cnn2c(SCC(=O)Cc3ccc(-c4nc5cc(NC(=O)CSc6nnc7n(N)cnn67)ccc5o4)cc3)nnc12 [AD16] | – | – | – | inhibition of L1-induced DNA damage (in words) ([4]; EN domain-only): better efficacy |
| 750 μM FIG. 2Q | 50% inhibition at | effective in the biochemical assay | O=C(Nc1ccc(S(=O)(=O)NCc2ccco2)cc1)c1cc(NS(=O)(=O)c2cccs2)cc(NS(=O)(=O)c2cccs2)c1 [AD18] | did not significantly impact retrotransposition in cells | – | – | in vitro activity against EN (in words) (L1 EN; [7]): clear activity in vitro |
